The results in this text go back to patent US20240277637A1, “CAPSAICIN DERIVATIVES IN THE TREATMENT OF IDIOPATHIC PULMONARY FIBROSIS” (aXichem AB, priority 2021, published 2024).

What all share (format): cell-based
Common to all, as to conditions: 10 ng/ml PDGF-AB, 14 days

Assay [1] has as its system human corneal epithelial cells. In words: Clonogenic cell survival assay, corneal epithelial cells with PDGF-AB (Example 1). As to the method: Primary isolated human corneal epithelial cells; Normal, Human cells (ATCC® PCS-700-010™) were maintained in culture at 37° C. with 5% CO2 and 95% humidity in serum reduced (5% fetal calf serum) modified promocell media (MPM) supplemented with 4 ng/ml fibronectin (FN), 2 ng/ml human recombinant vascular endothelial growth factor (VEGF) and 4 ng/ml basic fibroblast growth factor (bFGF).
A clonogenic cell survival assay determines the ability of a cell to proliferate indefinitely. The effects of phenylcapsaicin (2) on clonogenic survival of corneal epithelial cells was investigated by plating the cells with increasing numbers (102 to 5×104) in 25 cm^2 flasks. SU9518, a known inhibitor PDGF that has shown the ability to reduce radiation-induced fibroblast and endothelial cell activation, was used as the positive control. The cells were incubated with 0-10 μM of phenylcapsaicin and SU9518 separately in the presence of 10 ng/ml PDGF-AB. The flasks were returned to the incubator for 14 days, after which they were stained with crystal violet. The colonies were counted, and the surviving

Assay [2] deals with human bronchial epithelial cells. In words: Clonogenic cell survival assay, bronchial epithelial cells with PDGF-AB (Example 3). How it is done:
(§1) Primary isolated human bronchial epithelial cells (NHBE) were used in this assay sourced from the American Tissue Culture Collection (Normal, Human (ATCC® BEAS-2B™)) and were cultured up to passage 6. […].
A clonogenic cell survival assay determines the ability of a cell to proliferate indefinitely. Cells were plated with increasing numbers (102 to 5×10^4) in 25 cm^2 flasks. SU9518, SU9518, a known inhibitor PDGF that has shown the ability to reduce radiation-induced fibroblast and endothelial cell activation, and phenylcapsaicin were used as positive controls. The cells were incubated with 0-10 μM (3% DMSO aqueous) of phenylcapsaicin, SU9518, and compounds 1 and 3-7 separately in the presence of 10 ng/ml PDGF-AB (Sigma Aldrich). The flasks were returned to the incubator for 14 days, after which they were stained with crystal violet (Sigma Aldrich). The colonies were counted and the surviving percentage was determined for clonogenic survival after correcting for plating efficiency.

The test system is the same in assay [3]. In words: Clonogenic cell survival assay, bronchial epithelial cells with PDGF-AB (Example 2). How it is done:
Primary isolated human bronchial epithelial cells (NHBE) (Normal, Human (ATCC® BEAS-2B™)) were cultured up to passage 6. […].
A clonogenic cell survival assay determines the ability of a cell to proliferate indefinitely. The effects of phenylcapsaicin on clonogenic survival of bronchial epithelial cells was investigated by plating the cells with increasing numbers (10^2 to 5×10^4) in 25 cm^2 flasks. SU9518, a known inhibitor for PDGF which has shown the ability to reduce radiation-induced fibroblast and endothelial cell activation, was used as the positive control. The cells were incubated with 0-10 μM of phenylcapsaicin and SU9518 separately in the presence of 10 ng/ml PDGF-AB. The flasks were returned to the incubator for 14 days, after which they were stained with crystal violet. The colonies were counted, and the surviving percentage was determined for clonogenic survival after correcting for plating efficiency.

The test system is the same in assay [4]. The assay is described as follows: Clonogenic cell survival assay, bronchial epithelial cells with PDGF-AB (Example 4). How it is done: as §1
The effects of Phenylcapsaicin (2) on clonogenic survival of bronchial epithelial cells, by plating the cells with increasing numbers (102 to 5×104) in 25 cm^2 flasks were investigated. SU9518* and Phenylcapsaicin were used as positive controls. The cells were incubated with 0-10 μM (3% DMSO aqueous) of Phenylcapsaicin, SU9518, and compounds 8-12 separately in the presence of 10 ng/ml PDGF-AB (Sigma Aldrich). The flasks were returned to the incubator for 14 days, after which they were stained with crystal violet (Sigma Aldrich). The colonies were counted and the surviving percentage was determined for clonogenic survival after correcting for plating efficiency. The synthetic analogs were all calculated at 100% purity for molar concentrations.

On to `Cc1[nH]c(/C=C2\C(=O)Nc3ccc(Br)cc32)c(C)c1CCC(=O)O` [SU9518, reference compound], for which the “effect on clonogenic survival” value in assay [1] (0-10 μM) and in assay [3] (0-10 μM) was “dose dependent reduction in cell survival” each time. Besides, the entries for the “surviving fraction of epithelial cells” value in assay [1] (5 μM) and in assay [3] (5 μM) were 30% and 33%, respectively. For the same molecule, the “Clonogenic Survival Assay (percent)” value came out at 80% in assay [2] (0.10 μM); 65% in assay [2] (0.50 μM); 59% in assay [2] (1.00 μM); 41% in assay [2] (2.00 μM); 33% in assay [2] (5.00 μM); 22% in assay [2] (10.00 μM). For the same molecule, the “Clonogenic Survival Assay (percent)” value in assay [4] (0.10 uM) worked out at 80%; in assay [4] (0.50 uM) it was 65%; in assay [4] (1.00 uM) it was 59%; in assay [4] (2.00 uM) it was 41%; in assay [4] (5.00 uM), 33%; in assay [4] (10.00 uM) it was 22%.
